The text below walks through data of patent publication US10967032B2, “Optimum ratio for herbs combination obtained by using scientific-based formula for hypertension treatment and a composition thereof” (priority 2017, dated 2021).

SMILES strings stand for the structures.

Experiment [1] relates to inositol triphosphate receptor (IP3R). Put plainly: IP3R study: PE-induced contraction of pre-treated endothelium-denuded aortic rings. The experiment is classed as cell-based, rat. As to conditions: 100 μM pre-incubation; P<0.001. The method, then:
Similar with the VOCC mechanism study, three sets of experiments were carried out for investigating IP3R including the positive control set by applying the 2-APB (100 μM), control set (without treatment), and experimental sets by applying F1-2 (100 μl of 0.5, 2, and 8 mg/ml, separately, which equals to final concentration of 0.005, 0.02, and 0.08 mg/ml in tissue bath), in the endothelium-denuded isolated aortic rings. Similar protocol as elaborated in VOCC mechanism study was used to investigate this mechanism study. The only step different from VOCC mechanism study was the cumulative addition of CaCl2 was replaced by adding PE (1 μM) and left for 20 minutes to induce transient contraction after the 20 minutes pre-incubation with either 2-APB (positive control), F1-2 (experimental sets). The Cmax values were recorded and compared among each other.

The test system of experiment [2] is voltage-operated calcium channel (VOCC). The experiment in a line: VOCC study: CaCl2-induced vasoconstriction of pre-treated aortic rings. The settings on record: 0.1, 0.3, 1 μM pre-incubation. The experiment is classed as cell-based, rat.
Procedure: The experiment started by rinsing the mounted aortic rings with normal Krebs' solution for 3 times at 10 minutes interval. After that, the aortic rings were rinsed with EGTA (0.2 mM) contained Ca^2+-free high K^+ Krebs' solution for 10 minutes to eradicate the Ca^2+ residue, followed by rinsing with Ca^2+-free high K^+ Krebs' solution for twice at 10 minutes intervals. The resting potential was re-adjusted to 1.0 g before the application of any chemicals. In the control set, CaCl2 was added cumulatively (0.01-10 mM) into the tissue bath at 3 minutes interval. […] In the experimental groups, the F1-2 was added into tissue baths for 20 minutes before the addition of CaCl2. After that, the concentration-response curves were constructed, and maximum contraction (Cmax) values were recorded and compared to each other.
In experiment [3] the test system is spontaneous hypertensive rats (SHRs). Put plainly: Antihypertensive effect in SHRs, 28 days oral administration, tail-cuff SBP, DBP, MAP. Format: in vivo, rat. As to conditions: 80 mg/kg oral. The method, then: All the orally administrated drugs were freshly prepared on the day the experiment was carried out. Thirty male SHRs were divided into five groups (n=6 per group) as such negative control, positive control (80 mg/kg of propranolol), and experimental groups (three different dosages for different groups). The weight, systolic BP, diastolic BP, and MAP of all SHRs in five groups were determined before the experiment was carried out and assigned as results for week 0. The negative control group of SHRs was treated with 5 ml/kg of distilled water. The positive control group was treated with 80 mg/kg of propranolol. The experimental groups were treated with 0.24273 (small dose), 0.48546 (medium dose), and 0.97092 g/kg (high dose) of F1-2, separately. Propranolol and F1-2 were prepared by dissolving in 0.5% of CMC prior to the administration. All drugs were orally administrated by using the 14-sized curved feeding needle (Kent Scientific Corporation, Torrington, Conn., USA) every morning after eight hours of fasting the night before, and were treated for 28 days consecutively with their weight, systolic BP, diastolic BP, and MAP measured once a week.
The SBP, DBP, and MAP were measured by using tail-cuff method with the non-invasive blood pressure measurement system, CODA (Kent Scientific Corporation, Torrington, Conn., USA) which was equipped with a controller, laptop CODA software, cuffs, animal restrainers, infrared warming pads, and infrared thermometer. The measurements were performed by the same researcher at the same daytime once weekly. Before the experiments commenced, the SHRs were housed in the restrainer according to their body size and pre-warmed on the warming plate at 32° C. and were covered by warming blanket for at least 15 minutes to intensify the pulsation of the tail artery. The measurements were repeated at least […] for each SHR to obtain at least six accepted measurements (n=6) by the CODA program. The obtained SBP, DBP, MAP of positive control and experimental groups were compared to the negative control.

Turning to `NCCOB(c1ccccc1)c1ccccc1` [Formula 2-APB, 2-APB], the “contraction tension abolished compared to control” value in experiment [1] is on record as “approximately 97%”.

Regarding `COC(=O)C1=C(C)NC(C)=C(C(=O)OC)C1c1ccccc1[N+](=O)[O-]` [nifedipine], the “suppression of the contractile tone compared to control” value in experiment [2] is given as “at least 80%”.

Consider `CC(C)NCC(O)COc1cccc2ccccc12` (centres unmarked) [propranolol], for which the DBP in experiment [3] (28 days, control 189.19±3.61) was 139.69±3.15 mmHg. In experiment [3] (28 days, control 200.97±3.22), this compound showed an MAP of 152.06±3.10 mmHg. The compound further returned an SBP in experiment [3] (week 4 (28 days), control 225.81±2.77) of 182.08±2.38 mmHg.
